Results on eight molecules are retold here after ChEMBL document CHEMBL1201862, “PubChem BioAssay data set” (2004).

Among the test systems are EKVX; Malme-3M; OVCAR-3; HCC 2998; RPMI-8226; SN12C; OVCAR-4; IGROV-1; BT-549; UO-31; HL-60; CAKI-1; LOX IMVI; HCT-116; NCI-H226; T47D; SK-OV-3; ACHN; SF-268; RXF 393.
Common to all, as to test: NCI anticancer screen, dose series, 48 h

Each structure is given as a SMILES string.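 Five concentrations, 48 hours, 96-well plates. Here, GI50 denotes the concentration required for 50% inhibition of growth.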 Calls of active or inactive are those of the source. Cut-off read from the data, not from the text of the source: active = GI50 up to about 1.1 µM and inactive = higher.

`Cc1ccc(C(=O)OCC(C)C)cc1/N=N/N(C)C`: the GI50 in the assay with EKVX is > 100 µM (inactive); with Malme-3M, > 100 µM (inactive); in the assay with OVCAR-3, 28.6 µM (inactive); in the assay with HCC 2998 it was > 100 µM (inactive); with RPMI-8226, 77.6 µM (inactive); in the assay with SN12C, > 65 µM (inactive). Moreover, the GI50 in the assay on OVCAR-4 is > 71.8 µM (inactive); with IGROV-1 it was > 100 µM (inactive); with BT-549, 79.6 µM (inactive); with UO-31, 41.3 µM (inactive); in the assay on HL-60, 34.2 µM (inactive); with CAKI-1, 43.8 µM (inactive). The GI50 with LOX IMVI is 31.1 µM (inactive); with HCT-116, > 61.9 µM (inactive); in the assay with NCI-H226 it was > 100 µM (inactive); in the assay on T47D it was 35.3 µM (inactive); in the assay on SK-OV-3, > 100 µM (inactive); with ACHN it was 54.8 µM (inactive). Further, in the assay with SF-268, the GI50 was 42.9 µM (inactive).
Consider `O=C(NN1C(=O)/C(=C/c2ccc(Cl)cc2)N=C1c1ccccc1)c1c(Cl)c(Cl)c(Cl)c(Cl)c1-c1nc2ccccc2[nH]1`, for which the GI50 with EKVX was 19.4 µM (inactive); in the assay with Malme-3M it was 20.8 µM (inactive); with OVCAR-3, 33 µM (inactive); with HCC 2998, 8.09 µM (inactive); in the assay with SN12C it was 24.1 µM (inactive); in the assay on IGROV-1, 2.47 µM (inactive). In addition, the GI50 in the assay with BT-549 was 13.4 µM (inactive); with UO-31 it was 16.3 µM (inactive); in the assay with HL-60, 18.9 µM (inactive); in the assay on CAKI-1, 18.9 µM (inactive); in the assay with LOX IMVI it was 8.79 µM (inactive); in the assay with HCT-116, 15.6 µM (inactive). Moreover, the GI50 with NCI-H226 was 8 µM (inactive); with T47D it was 0.582 µM (active); in the assay with SK-OV-3 it was < 0.01 µM (active); in the assay on ACHN, 22.1 µM (inactive); in the assay with SF-268, 14.6 µM (inactive).
As for `COc1ccc2c(c1)CCc1c-2[nH]c2ccc(OC)cc12`, the GI50 was > 100 µM (inactive) in the assay with EKVX; 45.8 µM (inactive) in the assay with Malme-3M; > 100 µM (inactive) in the assay on OVCAR-3; > 100 µM (inactive) with HCC 2998; > 100 µM (inactive) in the assay on RPMI-8226; > 100 µM (inactive) with SN12C. In addition, the GI50 with OVCAR-4, in the assay with IGROV-1, with BT-549, in the assay on UO-31, in the assay with CAKI-1 and in the assay with LOX IMVI was > 100 µM (inactive) in each case. The GI50 in the assay with HCT-116 was > 100 µM (inactive); in the assay on NCI-H226 it was 36.4 µM (inactive); in the assay on T47D, 20.8 µM (inactive); in the assay with SK-OV-3, > 100 µM (inactive); with ACHN it was > 100 µM (inactive); with SF-268, > 100 µM (inactive).
Take `CC(C)(C)C(=O)C(C(c1ccccc1)N1CCOCC1)N1CCOCC1` (configuration not stated): the GI50 in the assay with EKVX, with Malme-3M, with OVCAR-3, in the assay on HCC 2998, in the assay with RPMI-8226 and with SN12C was > 100 µM (inactive) each time. Further, the GI50 with OVCAR-4, in the assay on IGROV-1, with BT-549, with UO-31, in the assay on CAKI-1 and with LOX IMVI was > 100 µM (inactive) each time. The GI50 in the assay on HCT-116, in the assay on RXF 393, in the assay on T47D, in the assay on ACHN and in the assay on SF-268 was > 100 µM (inactive) throughout.
For `C=CC(C)(C)/C=C/c1ccc(O)cc1`, the GI50 in the assay with EKVX is 45.3 µM (inactive); in the assay on Malme-3M it was 36.8 µM (inactive); in the assay on OVCAR-3, 28.8 µM (inactive); with HCC 2998, 27.9 µM (inactive); in the assay with RPMI-8226 it was 27.5 µM (inactive); with SN12C, 34.5 µM (inactive). In addition, the GI50 was 55.5 µM (inactive) with OVCAR-4; 44 µM (inactive) in the assay with IGROV-1; 36.5 µM (inactive) with BT-549; 37.6 µM (inactive) in the assay on HL-60; 44.7 µM (inactive) with CAKI-1; 21.9 µM (inactive) in the assay on LOX IMVI. Also, the GI50 was 31.3 µM (inactive) in the assay with HCT-116; 24.8 µM (inactive) in the assay on RXF 393; 20 µM (inactive) with T47D; 49.7 µM (inactive) in the assay on SK-OV-3; 28.9 µM (inactive) in the assay on ACHN; 33.9 µM (inactive) in the assay on SF-268.
As to `O=C(NN=C(c1ccccc1)c1ccccc1)/C(O)=C/C(=O)c1ccc(Cl)cc1`, the GI50 with EKVX is 30.7 µM (inactive); in the assay with Malme-3M, 20.7 µM (inactive); in the assay with OVCAR-3 it was 30.8 µM (inactive); in the assay with HCC 2998, 39.5 µM (inactive); with SN12C, 27.9 µM (inactive); with OVCAR-4, 45.4 µM (inactive). Besides, the GI50 in the assay on IGROV-1 was 27.7 µM (inactive); with BT-549 it was 38.1 µM (inactive); in the assay on UO-31, 29.8 µM (inactive); in the assay on CAKI-1, > 100 µM (inactive); in the assay with HCT-116, 31.5 µM (inactive); in the assay on RXF 393 it was 35.2 µM (inactive). Besides, the GI50 with NCI-H226 is 41.2 µM (inactive); with T47D it was 30.2 µM (inactive); with SK-OV-3 it was 73.3 µM (inactive); with ACHN, 37.4 µM (inactive); in the assay with SF-268 it was 36.9 µM (inactive).
In the case of `CC1SC2(CCCCC2)N(NC(=O)CSc2nc3ccc(Cl)cc3c(=O)n2-c2ccccc2)C1=O` (configuration not stated), the GI50 in the assay on EKVX is 42.5 µM (inactive); in the assay with Malme-3M, 30.8 µM (inactive); in the assay on OVCAR-3 it was 15.6 µM (inactive); with HCC 2998, 20 µM (inactive); in the assay on SN12C, 17.5 µM (inactive); with OVCAR-4 it was 30.4 µM (inactive). Besides, the GI50 in the assay with IGROV-1 is 12 µM (inactive); in the assay on BT-549, 20.2 µM (inactive); with UO-31 it was 21.1 µM (inactive); in the assay with HL-60, 23.6 µM (inactive); with CAKI-1, 37.1 µM (inactive); in the assay with LOX IMVI, 19.5 µM (inactive). In addition, the GI50 in the assay on HCT-116 is 14 µM (inactive); in the assay on RXF 393, 19.3 µM (inactive); in the assay with T47D, 27.3 µM (inactive); in the assay with SK-OV-3 it was 33.3 µM (inactive); in the assay on ACHN it was 29.6 µM (inactive); with SF-268 it was 25.8 µM (inactive).
For `CN(C)c1ccc(C(c2ccc(Cl)cc2)c2ccc(N(C)C)cc2)cc1`, the GI50 in the assay on EKVX was 62.5 µM (inactive); with Malme-3M, 30.1 µM (inactive); in the assay on OVCAR-3, > 100 µM (inactive); in the assay on HCC 2998, 69 µM (inactive); in the assay on RPMI-8226 it was 30.1 µM (inactive); with SN12C, > 100 µM (inactive). Also, the GI50 with IGROV-1 is > 100 µM (inactive); with BT-549, 54.8 µM (inactive); in the assay on UO-31 it was > 100 µM (inactive); with HL-60, > 100 µM (inactive); with CAKI-1 it was > 100 µM (inactive); in the assay on LOX IMVI, > 100 µM (inactive). The GI50 with HCT-116 was > 100 µM (inactive); with RXF 393 it was 28.8 µM (inactive); in the assay with T47D, 64.7 µM (inactive); with SK-OV-3, > 100 µM (inactive); with ACHN it was > 100 µM (inactive); in the assay on SF-268, > 100 µM (inactive).
